In patent US4325970A, “15-Acetyl-prostaglandins” (Hoffmann-La Roche Inc., priority 1980, dated 1982):
Like-named read-outs stand apart in the source and are kept apart here.

Columns and labels:
[1] = system: gastric secretion stimulated by histamine; test: Heidenhain pouch dog test, histamine-stimulated gastric secretion; format: in vivo, dog (mongrel)
Experimental: Compound A was next tested at a dose level which would cause a definite and reproducible pharmacological effect.
The Heindenhain pouch test involved collecting gastric juice from the denervated (Heidenhain) gastric pouches of mongrel dogs. This collection was accomplished by gravity drainage, using a specially manufactured titanium cannula. Gastric secretion was stimulated by intravenous infusion of a saline solution of histamine hydrochloride, 20 μg/kg/hr, injected at a rate of 1 ml/min. This submaximal stimulation elicited acid secretion approximately 30% of maximal, without the tachycardia commonly observed with higher doses of histamine. Samples of gastric juice were collected at 15-min intervals. Compound A was administered orally via a 1/4 oz. hard gelatin capsule. The animals were dosed 90 min after the start of histamine infusion and the test continued for 9 hours post-drug administration. The dogs were concious and stood quietly in Pavlov slings during the experiments. Sample volume was measured, and pH, acid concentration (mEq/L), acid output (mEq/15-min periods), as well as pepsin concentration and output were determined. Vital signs were monitored throughout the test and kennel observations continued for 24 hr.
The indexes chosen to assess drug efficacy were acid concentration and acid output. These parameters were expressed as a percentage of the average of the three 15-min values prior to dosage. […] […] Values of pH increased from a control average of 1.0 to a maximum of 2.0 six hours post drug. Analysis of control data for this group of Heindenhain-pouch dogs indicated no significant decrease in gastric juice volumes from control levels during these extended studies. In these control animals, pH values averaged 0.9 throughout the entire experiment. Therefore, no significant decreases in acid concentration or output would be expected in the control results.

[2] = system: gastric secretion; test: gastric secretory depressant test in the unanesthetized rat with acute gastric fistula (acid concentration, acid output, pH); format: in vivo; details: for % Inhibition, acid concentration (S.E.M.) / % Inhibition, acid output (S.E.M.): 10 μg/kg b.w. I.G.
Experimental: were tested as gastric secretory depressants in the unanesthesized rat with acute gastric fistula by the following procedure:
During this baseline period, the pH of the secretory flow was about 1.5 for each animal. Individual samples were collected at 10-minute intervals during this baseline period to monitor the pH. The compounds dissolved in polyethylene glycol-400 were administered intragastrically (I.G.) after this baseline period and samples were continuously collected for up to 180 minutes. The samples of gastric contents were subsequently assayed for volume, total acid concentration (μEq/ml) and total acid output for 10 minutes (μEq/10 minutes).
In addition to intragastric (I.G.) dosages, the activity of these compounds was tested for intraduodenal (I.D.) and intravenous administration (I.V.) to unanesthetized rats with acute gastric fistula as described above. For I.D. administration, the compounds were dissolved in polyethylene glycol-400. On the other hand, a trimethylolnitro-methane/ethanol solution was used for I.V. dosing. […] With this dose and route of administration of Compound A, a pronounced effect on pH was seen, an average increase of 3.1 pH units over 3 hours post administration. With the I.G. dose of Compound A of 5 μg/Kg b.w., an average increase of 1.6 pH units occurred. […] The antisecretory effect of Compound A seen after I.V. administration (10 μg/Kg b.w.) was low, amounting to about 1/4 to 1/5 that seen following I.G. dosage of Compound A. With the I.V. route of administration at this dose of Compound A (10 μg/Kg b.w.) effect on pH was minimal, 1/10 to 1/20 that seen after I.G. administration of an identical dose of Compound A.

[3] = system: gastric microbleeding induced by aspirin; format: in vivo, rat; details: for blood lost after Compound A in combination with aspirin: intragastric, one hour
Source text: To study the effects of Compound A on gastric microbleeding induced by aspirin, a technique was developed based on that used by Menasse-Gdynia and Krupp, Toxicol, Appl. Pharmacol. 29, 389-396. The technique involves the microsurgical preparation of rats so as to isolate the stomach in an accessible, perfused system and the utilization of chromium-51-labelled red blood cells (^51 Cr-RBC) as a convenient handle for the assessment of bleeding from drug-induced gastric microlesions.
Rats were microsurgically implanted with a cannula in the vena cava (for the injection of ^51 Cr-RBC), a cannula in the forestomach (for constant infusion of tap water) and a cannula in the duodenum at the pyloric sphincter (for collection ot total gastric effluent). After a 30 min wash with tap water infused at 5.5 m/hr, each animal was administered either aspirin (100 mg/kg) or aspirin in combination with Compound A. Ease dose was administered intragastrically in 1 ml 40% polyethylene glycol (having molecular weight of 400) vehicle and allowed to remain in the stomach for 15 min. Simultaneously 0.9 ml ^51 Cr-RBC (3×10^6) was administered through the vena cava. Gastric effluent was collected every 5 min for a total of […]. Radioactivity was determined in a gamma counter. The results are expressed as microliters of whole blood lost during the 60 min experiments, based on the following formula: [formula]

[4] = system: acid secretion; test: acid secretion in three conscious dog models (Heidenhain pouches, Pavlov pouches or gastric fistulae); format: in vivo
Source text: These models consisted of concious dogs prepared with Heidenhain pouches, Pavlov pouches or gastric fistulae.

[5] = 20 minutes after administration
[6] = 30 minutes after administration
[7] = 40 minutes after administration
[8] = 50 minutes after administration
[9] = 60 minutes after administration
[10] = 70 minutes after administration
[11] = 80 minutes after administration
[12] = 90 minutes after administration
[13] = 100 minutes after administration
[14] = 110 minutes after administration
[15] = 120 minutes after administration
[16] = 130 minutes after administration
[17] = 140 minutes after administration
[18] = 150 minutes after administration
[19] = 160 minutes after administration
[20] = 170 minutes after administration
[21] = 180 minutes after administration
[22] = Compound A 10 μg/kg + aspirin 100 mg/kg

## CCCCC(C)(C)[C@@H](/C=C/C1[C@H](C)CC(=O)[C@@H]1C/C=C\CCCC(=O)O)OC(C)=O (stereo in doubt) [Compound A, (8R,11R,12S,15R,5Z,13E)-15-acetyloxy-11,16,16-trimethyl-9-oxoprosta-5,13-dien-1-oic acid]
[1]; 100 μg/kg p.o.
  activity: potential for significant activity
[1]; 100 μg/kg p.o., six dogs
  dogs with 50% or better acid reduction for more than two hours: Three of the six dogs
[1]; 100 μg/kg p.o., in three of the six dogs, for more than two hours post dosage
  acid reduction: ≥ 50%
[1]; 100 μg/kg p.o., three of the six dogs
  duration of 50% or better acid reduction: more than two hours
[1]; 250 μg/kg oral
  activity compared with 500 μg/kg level: almost as good as that found at the 500 μ/kg level
[1]; 500 μg/kg oral
  antisecretory activity: marked antisecretory activity of long duration
  duration of >60% inhibition of acid output: > 9 h
  start of >60% inhibition of acid output after administration: 45 min
[1]; 500 μg/kg oral, beginning 45 minutes after administration, longer than 9 hours, mean=0.38 mEq/15 minutes
  inhibition of acid output: > 60%
[1]; 500 μg/kg oral, constant between 4 and 5 3/4 hours post drug, control mean=136 mg/L as printed
  reduction of the acid concentration from control values: ≥ 50%
[1]; 500 μg/kg oral, six hours post drug, from a control average of 1.0
  maximum pH of gastric juice: 2.0
[2]; 5 μg/Kg I.G.
  duration of action: 110 min
[2]; 5 μg/Kg I.G. vs 10 μg/Kg I.G.
  response in pH relative to that seen with the 10 μg/Kg b.w. dose of Compound A: about 50%
[2]; 5 μg/Kg b.w. I.G.
  average increase of pH: 1.6 pH units
  effect on pH compared with 10 μg/Kg I.G. of Compound B: essentially equivalent to that of the 10 μg/Kg I.G. of Compound B
[2]; 10 μg/Kg I.G.
  duration of action: 180 min
[2]; 10 μg/Kg b.w. I.D.
  effect on acid concentration and output compared with I.G. dosage: no different to the I.G. dosage of Compound A
  effect on pH compared with I.G. route: much lower than by the I.G. route
[2]; 10 μg/Kg b.w. I.G. (printed 10 g/Kg), over 3 hours post administration
  average increase of pH: 3.1 pH units
[2]; 10 μg/Kg b.w. I.V.
  antisecretory effect: low
  effect on pH: minimal
[2]; [5]
  % Inhibition, acid concentration (S.E.M.): 34 (16) %
  % Inhibition, acid output (S.E.M.): 39 (14) %
[2]; [6]
  % Inhibition, acid concentration (S.E.M.): 91 (9) %
  % Inhibition, acid output (S.E.M.): 91 (9) %
[2]; [7]
  % Inhibition, acid concentration (S.E.M.): 70 (14) %
  % Inhibition, acid output (S.E.M.): 69 (17) %
[2]; [8]
  % Inhibition, acid concentration (S.E.M.): 50 (17) %
  % Inhibition, acid output (S.E.M.): 43 (20) %
[2]; [9]
  % Inhibition, acid concentration (S.E.M.): 67 (21) %
  % Inhibition, acid output (S.E.M.): 73 (17) %
[2]; [10]
  % Inhibition, acid concentration (S.E.M.): 67 (21) %
  % Inhibition, acid output (S.E.M.): 74 (17) %
[2]; [11]
  % Inhibition, acid concentration (S.E.M.): 67 (21) %
  % Inhibition, acid output (S.E.M.): 79 (16) %
[2]; [12]
  % Inhibition, acid concentration (S.E.M.): 80 (20) %
  % Inhibition, acid output (S.E.M.): 80 (20) %
[2]; [13]
  % Inhibition, acid concentration (S.E.M.): 67 (20) %
  % Inhibition, acid output (S.E.M.): 60 (25) %
[2]; [14]
  % Inhibition, acid concentration (S.E.M.): 60 (24) %
  % Inhibition, acid output (S.E.M.): 68 (20) %
[2]; [15]
  % Inhibition, acid concentration (S.E.M.): 67 (20) %
  % Inhibition, acid output (S.E.M.): 72 (20) %
[2]; [16]
  % Inhibition, acid concentration (S.E.M.): 80 (19) %
  % Inhibition, acid output (S.E.M.): 80 (20) %
[2]; [17]
  % Inhibition, acid concentration (S.E.M.): 100 (0) %
  % Inhibition, acid output (S.E.M.): 100 (0) %
[2]; [18]
  % Inhibition, acid concentration (S.E.M.): 72 (17) %
  % Inhibition, acid output (S.E.M.): 92 (5) %
[2]; [19]
  % Inhibition, acid concentration (S.E.M.): 80 (16) %
  % Inhibition, acid output (S.E.M.): 82 (18) %
[2]; [20]
  % Inhibition, acid concentration (S.E.M.): 80 (15) %
  % Inhibition, acid output (S.E.M.): 80 (20) %
[2]; [21]
  % Inhibition, acid concentration (S.E.M.): 67 (33) %
  % Inhibition, acid output (S.E.M.): 71 (29) %
[2]; I.G. dose 10 g/Kg [sic] b.w.
  antisecretory effects: pronounced antisecretory effects
  duration of antisecretory effect: at least 3 hours
  duration of antisecretory effect compared with Compound B: significantly longer than that seen with Compound B
[3]; Compound A 1.25 μg/kg + aspirin 100 mg/kg
  blood lost after Compound A in combination with aspirin: 178 µL
[3]; Compound A 2.5 μg/kg + aspirin 100 mg/kg
  blood lost after Compound A in combination with aspirin: 56 µL
[3]; [22]
  prevention of aspirin-induced microbleeding: complete prevention
  blood lost after Compound A in combination with aspirin: 0 µL
[3]; Compound A 1.25, 2.5 or 10 μg/kg + aspirin 100 mg/kg
  effect on aspirin-induced bleeding: reduced or prevented bleeding in a dose-dependent manner
[4]; 50 to 100 μg/kg I.V.
  inhibition of acid secretion: at best, intermittent, slight to moderate inhibition of acid secretion of short duration
[4]; oral and intrapouch dose of 10 to 50 μg/kg
  inhibition of acid secretion: at best, intermittent, slight to moderate inhibition of acid secretion of short duration

## CCCCC(C)(C)[C@H](O)/C=C/C1[C@H](C)CC(=O)[C@@H]1C/C=C\CCCC(=O)O (stereo in doubt) [Compound B, (8R,11R,12S,15R,5Z,13E)-15-hydroxy-11,16,16-trimethyl-9-oxoprosta-5,13-dien-1-oic acid, reference compound]
[2]; [5]
  % Inhibition, acid concentration (S.E.M.): 62 (5) %
  % Inhibition, acid output (S.E.M.): 69 (3) %
[2]; [6]
  % Inhibition, acid concentration (S.E.M.): 67 (6) %
  % Inhibition, acid output (S.E.M.): 72 (2) %
[2]; [7]
  % Inhibition, acid concentration (S.E.M.): 58 (6) %
  % Inhibition, acid output (S.E.M.): 68 (6) %
[2]; [8]
  % Inhibition, acid concentration (S.E.M.): 59 (5) %
  % Inhibition, acid output (S.E.M.): 73 (2) %
[2]; [9]
  % Inhibition, acid concentration (S.E.M.): 43 (5) %
  % Inhibition, acid output (S.E.M.): 78 (7) %
[2]; [10]
  % Inhibition, acid concentration (S.E.M.): 45 (5) %
  % Inhibition, acid output (S.E.M.): 71 (3) %
[2]; [11]
  % Inhibition, acid concentration (S.E.M.): 44 (6) %
  % Inhibition, acid output (S.E.M.): 77 (7) %
[2]; [12]
  % Inhibition, acid concentration (S.E.M.): 25 (13) %
  % Inhibition, acid output (S.E.M.): 57 (17) %
